Test results from publication PMC4076079, “Selective inhibitors of a PAF biosynthetic enzyme lysophosphatidylcholine acyltransferase 2” (Journal of Lipid Research, 2014).
Read-outs that look alike come from different tables or passages of the source.

Assays:
hLPCAT1 = molecular target: T1, hLPCAT1 (Homo sapiens, UniProt Q8NF37); experiment: lyso-PAFAT (acetyltransferase) activity assay, PAF product by LC-MS/MS; assay type: biochemical; conditions: for IC50: 0, 0.2, 0.6, 2, 6 and 20 μM of each compound in triplicate, LC-MS/MS, read-out: IC50, product PAF, enzyme hLPCAT1; for percentage inhibition, product PAF, hLPCAT1: 20 μM compound, microsomal fractions of nonstimulated CHO-S-PAFR cells, n = 3, mean ± SEM
T1 construct: expressed in transfected cells
T1 sequence (Q8NF37 1-534): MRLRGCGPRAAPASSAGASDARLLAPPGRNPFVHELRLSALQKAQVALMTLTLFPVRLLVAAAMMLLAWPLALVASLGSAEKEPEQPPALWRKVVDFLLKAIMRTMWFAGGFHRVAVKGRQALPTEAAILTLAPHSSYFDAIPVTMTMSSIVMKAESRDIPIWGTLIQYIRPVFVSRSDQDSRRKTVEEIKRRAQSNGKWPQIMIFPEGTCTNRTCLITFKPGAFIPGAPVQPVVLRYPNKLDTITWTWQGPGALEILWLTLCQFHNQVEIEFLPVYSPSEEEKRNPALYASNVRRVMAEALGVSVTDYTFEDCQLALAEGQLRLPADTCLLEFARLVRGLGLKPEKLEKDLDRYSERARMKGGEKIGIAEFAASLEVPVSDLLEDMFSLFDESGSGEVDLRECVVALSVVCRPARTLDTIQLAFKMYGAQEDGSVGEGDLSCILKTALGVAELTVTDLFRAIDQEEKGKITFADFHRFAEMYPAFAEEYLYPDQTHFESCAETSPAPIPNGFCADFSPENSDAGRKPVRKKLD
Protocol: Microsomal protein fractions (0.5 μg) supplemented with the indicated compound concentrations were added to the reaction mixture containing 100 mM Tris-HCl (pH 7.4), 1 μM CaCl2, 0.015% Tween-20, and two substrates. For acetyltransferase activity, the substrates were 1 mM acetyl-CoA and 5 μM d4-lyso-PAF; for the acyltransferase activity of LPCAT1 or LPCAT2, the substrates were, respectively, palmitoyl-CoA and d31-16:0 LPC or arachidonoyl-CoA and d4-lyso-PAF (all 5 μM). Each lysophospholipid contained fatty acid at the sn-1 position. After incubation at 37°C for 5 min, the reactions were stopped by adding 300 μl methanol containing 17:0 LPC or 14:0/14:0 PC as an internal standard. Deuterium-labeled products were analyzed by LC-MS/MS (Waters, Milford, MA and Thermo Scientific, Waltham, MA). […]
Steps 2 to 5 screening: 96-well plate assay
Acetyltransferase and acyltransferase assays were developed in 96-well plates. The microsomal hLPCAT2, obtained from mcPAF-stimulated CHO-S-PAFR cells was used in steps 1, 2, and 5. The microsomal hLPCAT1 obtained from unstimulated CHO-S cells was used in steps 3 to 5. Each well of the 96-well plates contained 30 µl of 15 µg/ml protein, 600 nl of 2 mM compound, 30 µl buffer C, and two substrates (Fig. 1B and C).
Substrate concentrations were as follows: acetyl-CoA, 250 or 1000 µM acetyl-CoA; […]
arachidonoyl-CoA, 5 µM; palmitoyl-CoA, 5 µM; d4-lyso-PAF, 5 µM; and d31-LPC, 5 µM.
For step 5, compound concentrations were 0, 0.167, 0.67, 2, 6.7, and 20 µM. The deuterium-labeled products were measured by LC-MS/MS. Percentage inhibition (steps 2 to 4) or IC50 (step 5) was used as the hit criterion. […]
Step 7 screening: species-specific differences
To evaluate the effects on the activity of mouse or human LPCAT1 and LPCAT2, each microsomal fraction was obtained using CHO-S-PAFR cells with or without mcPAF (200 nM) stimulation for 5 min. Acetyltransferase and acyltransferase assays were performed with 20 µM of each compound. Percentage inhibition was calculated in each

RAW-mLPCAT2 cells = experiment: cell-based assay: A23187-induced PAF production, PAF and lyso-PAF by LC-MS/MS; parameters: species or system mouse; conditions: for IC50: Mus musculus
Protocol: RAW-mLPCAT2 cells and peritoneal macrophages were seeded in 24-well plates (4 × 10^6 cells/well) for 24 or 2 h, respectively, before treatment. RAW-mLPCAT2 cells were stimulated with 5 μM A23187 for 5 min after a 1 h treatment with the compounds. Peritoneal macrophages were preincubated with 100 ng/ml LPS for 18 h, treated with the compounds for 1 h, and stimulated with 5 μM A23187 for 5 min. To analyze cellular PAF levels, lipids were extracted with 500 μl methanol containing d4-PAF and d4-lyso-PAF as internal standards. Each sample was submitted to solid phase extraction using an Oasis HLB 96-well cartridge cluster (Waters), and PAF and lyso-PAF were measured by LC-MS/MS as previously described ([13]).
Chromatography was performed using an Acquity™ Ultra-performance LC system (Waters) coupled to a TSQ Vantage triple stage quadrupole mass spectrometer (Thermo Scientific) with a HESI-II electrospray ionization source ([13]). Phospholipids were separated on BEH C8 columns (1.7 μm, 2.1 × 30 mm or 1 × 100 mm; Waters) for the analysis of assay products or the composition of cellular PAF and lyso-PAF, respectively. The mobile phase contained 20 mM aqueous ammonium bicarbonate and acetonitrile. The extracts from peritoneal macrophages were separated on a Kinetex C8 column (1.7 μm, 2.1 × 100 mm; Phenomenex, Torrance, CA) by a gradient elution with 0.05% formic acid-water and acetonitrile, using the Nexera X2 system and LCMS-8080 mass spectrometer (Shimadzu, Kyoto, Japan) ([13]). Lyso-PAF, d4-PAF, and d31-DPPC were identified by the choline fragment (m/z 184) as a product ion of selected reaction monitoring in the positive ion mode. Nonlabeled PAF and d4-16:0/20:4 alkyl-PC were determined by fatty acid anions of sn-2 composition (m/z 59 and 303, respectively) in the negative ion mode. Mass spectra were processed using the Xcalibur 2.0 (Thermo Scientific) or LabSolutions 5.50 (Shimadzu) software. Signal intensities were determined relative to the internal standard or as the percentage of the positive control. […]
Step 9 screening: cell-based assay
RAW-mLPCAT2 cells were treated with compounds for 1 h and analyzed after 5 min stimulation with A23187. The assays were performed with 0, 0.2, 0.6, 20, and 50 or 60 µM of compound. PAF concentration was measured by LC-MS/MS.
The data were normalized to each positive control (100% activation). Percentage inhibition or IC50 were determined in each screening step. To assess screening quality, the percentage coefficient of variance and the Z’ factor was calculated for each plate or each assay as described previously (2).

[1] = 1 h pretreatment, 5 μM A23187 for 5 min
[2] = screening step 9 (n = 2), 1 h compound, 5 min A23187, read-out: IC50, A23187-induced PAF production

SMILES | IC50 (hLPCAT1) [µM] | percentage inhibition, product PAF, hLPCAT1 (hLPCAT1) [percentage] | A23187-induced PAF production (RAW-mLPCAT2 cells; [1]) | lyso-PAF level (RAW-mLPCAT2 cells; [1]) | IC50 (RAW-mLPCAT2 cells; 1 h pretreatment, 5 μM A23187 for 5 min, Fig. 4, three independent experiments, read-out: IC50, inhibition of PAF production) [µM] | IC50 (RAW-mLPCAT2 cells; [2]) [µM]
CC(C)OC(=O)c1ccc(N2C(=O)C(Cl)=C(Cl)C2=O)cc1 [TSI-01, propan-2-yl 4-(3,4-dichloro-2,5-dioxopyrrol-1-yl)benzoate] | 3.02 | 75.9 ± 5.2 | suppressed | increased | 38.8 | 28.2
O=C1C(Cl)=C(N2CCOCC2)C(=O)N1c1ccc(Oc2ccccc2)cc1 [TSI-02, 3-chloro-4-morpholin-4-yl-1-(4-phenoxyphenyl)pyrrole-2,5-dione] | 8 |  |  |  |  | 23.6
CC(C)OC(=O)c1ccc(N2C(=O)C(Cl)=C(Nc3ccccc3O)C2=O)cc1 [TSI-07] | > 20 | 11.9 ± 13.1 | suppressed | decreased |  | 

Molecules with a lower IC50 (hLPCAT1), results first:

IC50 (hLPCAT1) [µM] | percentage inhibition, product PAF, hLPCAT1 (hLPCAT1) [percentage] | SMILES | A23187-induced PAF production (RAW-mLPCAT2 cells; [1]) | lyso-PAF level (RAW-mLPCAT2 cells; [1]) | IC50 (RAW-mLPCAT2 cells; 1 h pretreatment, 5 μM A23187 for 5 min, Fig. 4, three independent experiments, read-out: IC50, inhibition of PAF production) [µM] | IC50 (RAW-mLPCAT2 cells; [2]) [µM]
2.42 | 76.1 ± 4.4 | CCCOC(=O)c1ccc(N2C(=O)C(Cl)=C(Cl)C2=O)cc1 [TSI-10] | suppressed | increased |  | 
1.01 | 78.6 ± 2.8 | CCCCOC(=O)c1ccc(N2C(=O)C(Cl)=C(Cl)C2=O)cc1 [TSI-11, butyl 4-(3,4-dichloro-2,5-dioxopyrrol-1-yl)benzoate] | suppressed | not changed |  | 
